Here are results for six compounds from patent US20030096433A1, “Homogeneous fluorescence assay” (Evotec Analytical Systems GmbH, priority 1999, published 2003).

In one test the test system is anti-estradiol antibody. The experiment in a line: 17-β-Estradiol competitive carrier particle assay (FCS). In kind it is binding. To be noted: for IC50: competition with TAMRA-estradiol, carrier particles 160 nm, FCS. An excerpt:
The anti-estradiol-antibody was kindly provided by Dr. Schumacher (Institute of Fertility Research, Hamburg). 17-β-estradiol was obtained from Sigma. The protein A coated carrier particles (Protein A Ferrofluid™) with a mean diameter of 160 nm were from Immunicon. The optical set-up was the same as described in Example 1. […] Data evaluation and fitting procedures were the same as described in Example 1. The concentration of the conjugate (TAMRA-estradiol), the corresponding antibody and the carrier particles were kept constant in a specific series of experiments. […] The competitive assays were carried out as follows: The TAMRA conjugate of estradiol was mixed with the corresponding unlabelled molecules. […] Some experiments with JA190-estradiol conjugates were carried out in E-NAP buffer (200 mM sodium acetate, 150 mM NaCl, 0.2% BSA, pH 4). […] All estradiol conjugates, except for the BODIPY™-derivative, bound to an anti-estradiol antibody with similar affinity. […] All other conjugate-antibody interactions remained strong. […] TAMRA-estradiol was used for further assay evaluation.

Test [1] has as its system anti-estradiol antibodies. The experiment in a line: Estradiol competition assay (fluorescence intensity distribution analysis). In kind it is binding, Rabbit. The settings on record: 5 nM estradiol-Tamra, 0.18 nM carrier particles, 10 x 2 s.
For another test, the target named is T1, p60src kinase (Homo sapiens, UniProt P12931).
T1 construct: purchased Upstate Biotechnology
The experiment in a line: Protein tyrosine kinase pharmaceutical screening assay. In kind it is biochemical. An excerpt:
At first p60src (Upstate Biotechnology) phosphorylates the P2 substrate. The phos-phorylated and biotinylated P1 peptide is depicted as string of beads with attached “P” (phosphate) and triangle (biotin). The phosphorylated P2 competes with P1 for binding to the TRITC-labeled anti-phosphotyrosine antibody. In absence of enzyme activity all fluorescent antibodies are bound to carrier particles via P1 which means maximal binding to carrier particles and correspondingly minimum particle number. The phosphorylated P2 catches the fluorescent antibody preventing the formation of complexes. In that case no binding to carrier particles occurs and maximal particle number will be measured. Potential inhibitors are incubated with the enzyme before the enzyme reaction is started by adding a mixture of P2 and ATP.

Test [2] concerns the target anti-theophylline antibody. The settings on record: read-out: K2 (KD value for the competitor).

Several values for one entry are separate records, joined by “and”; a condition that tells them apart may be missing. Equal values may be shown once. Read-outs that look alike come from different tables or passages of the source.

`C[C@]12CC[C@@H]3c4ccc(O)cc4CC[C@H]3[C@@H]1CC[C@@H]2O` [estradiol, 17-β-estradiol]: the IC50 was 20 nM in the test on anti-estradiol antibody (read-out: IC50 using the binding degree); 3 nM in the test on anti-estradiol antibody (read-out: IC50 using the correlation amplitude gB); 11.9 ± 2.4 nM in test [1] (FIG. 8A, read-out: IC50 from I1 (intensity of free conjugate), hyperbolic fit); 13.3 nM and 13.2 nM in test [1] (FIG. 8B, read-out: IC50 from I2 (intensity of carrier particles with bound conjugate), hyperbolic fit); 8.8 ± 1.1 nM in test [1] (FIG. 8C, read-out: IC50 from I2/(I1+I2), hyperbolic fit).

On to `O=CN/C=C/c1cc(O)ccc1O` [Erbstatin], for which the “Activity on p60src kinase (in words)” value on p60src kinase (dose-response curves, FIG. 12) is “inactive”.

On to `Cc1cc(O)c2c(c1)C(=O)c1cc(O)cc(O)c1C2=O` [Emodin], for which the IC50 against p60src kinase (dose-response curves, FIG. 12) fell in the range of 50000 to 100000 nM.

`CN(C)c1ccc2c(-c3ccc(C(=O)NCCOCCOCCNC(=O)CON=C4CC5C(CCC6(C)C(O)CCC56)c5ccc(O)cc54)cc3C(=O)[O-])c3ccc(N(C)C)cc3[o+]c2c1` (centres unmarked) [TAMRA-estradiol]: the Kd on anti-estradiol antibody (simultaneous fit of gB and binding degree to equations 1 and 8, read-out: K1 (KD value for the conjugate)) turned out to be 0.0014 nM.

For the compound `Nc1ncnc2c1ncn2[C@@H]1O[C@H](COP(=O)(O)OP(=O)(O)OP(=O)(O)O)[C@@H](O)[C@H]1O` [ATP], the Km on p60src kinase (turn over velocity versus ATP concentration, FIG. 13, read-out: Michaelis constant KM) was found to be 16.2 ± 4 µM.

For `Cn1c(=O)c2[nH]cnc2n(C)c1=O` [theophylline, Theophylline], the Kd in test [2] (fit with K1 fixed at 10^−11 M) was 0.083 nM; in test [2] (simultaneous fit of gB and binding degree to equations 1 and 8, K1 variable), 0.0025 nM.
